Paper PMC7979765, “trans-Translation inhibitors bind to a novel site on the ribosome and clear Neisseria gonorrhoeae in vivo” (Nature Communications, 2021)
Converted amounts (≈) assume the structure as drawn. “And” between values parts separate entries of the source, which are not always exact repeats. Equal values may be shown once. Read-outs that look alike come from different tables or passages of the source.

Columns and labels:
[1] = biological target: T1, Serotonin (5-hydroxytryptamine) 5-HT2B (Homo sapiens, UniProt P41595); assay: Receptor Profiling 271700; type: binding
T1 construct: Eurofins Discovery Services (contract assay) 271700
T1 sequence (P41595 whole entry): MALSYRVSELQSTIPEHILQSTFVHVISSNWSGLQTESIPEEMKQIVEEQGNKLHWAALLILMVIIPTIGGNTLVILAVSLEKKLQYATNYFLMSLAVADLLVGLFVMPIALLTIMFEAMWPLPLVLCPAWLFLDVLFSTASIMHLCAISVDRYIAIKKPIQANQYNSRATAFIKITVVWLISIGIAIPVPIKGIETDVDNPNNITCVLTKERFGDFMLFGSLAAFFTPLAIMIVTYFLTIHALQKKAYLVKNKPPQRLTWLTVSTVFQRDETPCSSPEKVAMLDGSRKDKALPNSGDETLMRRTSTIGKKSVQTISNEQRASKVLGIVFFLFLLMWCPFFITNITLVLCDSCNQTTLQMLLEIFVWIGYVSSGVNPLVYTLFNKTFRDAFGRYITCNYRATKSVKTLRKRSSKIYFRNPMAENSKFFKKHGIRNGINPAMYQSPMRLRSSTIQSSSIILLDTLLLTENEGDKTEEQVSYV
Procedure: (§1) Several in vitro selectivity assays were performed at Eurofins Discovery Services using established methods and controls that behaved as expected (Supplementary Tables 5 and 6). […] For receptor panel profiling, MBX-4132 was evaluated at 10 μM and activity of >50% (agonist or antagonist; note that negative % inhibition indicates agonism) was scored as active.

[2] = tested on: Calcium Channel L-Type, Dihydropyridine; assay: Receptor Profiling 214600; type: binding, rat; settings: 10 μM
Procedure: as §1

[3] = Liver microsome stability, dog; type: in vitro ADME; settings: for half-life: dog, liver microsomes
Procedure: To examine potential for first-pass metabolism of analogs in the liver, the stability of analogs in the presence of liver microsome preparations (Eurofins Discovery for human, dog and rat; Xenotech for mouse) was measured using the method of Kuhnz, et al.[50]. for murine studies and Oback for the dog, human and rat studies. The amount of parent compound remaining after incubation with microsomes in the presence of NADPH over a 30 min time range was measured using a reverse-phase liquid chromatography/mass spectroscopy method that was customized for each compound. Half-lives were calculated using linear regression analysis of several time points.

[4] = tested on: N. gonorrhoeae ATCC 49226; assay: Time-kill assay

O=C(Nc1nnc(-c2ccc(F)cc2)o1)N1CCc2ccccc2C1 [MBX-4132]
inhibition at 10 µM [1]: 44% | % inhibition [2]: 11% | Microsomal stability (t½, min) Dog ([3]; Replicate 1/2, Eurofins): >>60 min | half-life ([3]; Average Value, Eurofins, read-out: Microsomal stability (t½, min) Dog): > 60 min | half-life ([3]; Replicate 1/2, Eurofins, read-out: Microsomal stability (t½, min) Dog): > 60 min | half-life ([3]; Reported value, Eurofins, read-out: Microsomal stability (t½, min) Dog): > 120 min | half-life ([3]; read-out: Microsomal Stability (t1/2; min) Dog): > 120 min | AVE CFU/ml ([4]; 1X MIC, 0 h): 9800000 CFU/ml | AVE CFU/ml ([4]; 1X MIC, 1 h): 7.80E+06 CFU/ml and 7800000 CFU/ml | CFU/mL, replicates 1-3 ([4]; 1X MIC, 1 h): 7400000 CFU/mL and 6800000 CFU/mL and 9200000 CFU/mL | AVE CFU/ml ([4]; 1X MIC, 2 h): 3.60E+06 CFU/ml and 3600000 CFU/ml | CFU/mL, replicates 1-3 ([4]; 1X MIC, 2 h): 3800000 CFU/mL and 3600000 CFU/mL and 3400000 CFU/mL | AVE CFU/ml ([4]; 1X MIC, 4 h): 5133333 CFU/ml and 5.13E+06 CFU/ml | CFU/mL, replicates 1-3 ([4]; 1X MIC, 4 h): 5800000 CFU/mL and 5200000 CFU/mL and 4400000 CFU/mL | AVE CFU/ml ([4]; 1X MIC, 6 h): 6200000 CFU/ml and 6.20E+06 CFU/ml | CFU/mL, replicates 1-3 ([4]; 1X MIC, 6 h): 6000000 CFU/mL and 5800000 CFU/mL and 6800000 CFU/mL | AVE CFU/ml ([4]; 1X MIC, 8 h): 1173333 CFU/ml | AVE CFU/ml ([4]; 1X MIC, 8 h, listed as 4132): 1.17E+06 CFU/ml | CFU/mL, replicates 1-3 ([4]; 1X MIC, 8 h, listed as 4132): 1120000 CFU/mL and 1160000 CFU/mL and 1240000 CFU/mL | AVE CFU/ml ([4]; 1X MIC, 24 h): 6866667 CFU/ml and 6.87E+06 CFU/ml | CFU/mL, replicates 1-3 ([4]; 1X MIC, 24 h): 7400000 CFU/mL and 6400000 CFU/mL and 6800000 CFU/mL | AVE CFU/ml ([4]; 4X MIC, 0 h): 9800000 CFU/ml | AVE CFU/ml ([4]; 4X MIC, 1 h): 5.73E+06 CFU/ml and 5733333 CFU/ml | CFU/mL, replicates 1-3 ([4]; 4X MIC, 1 h): 6400000 CFU/mL and 5600000 CFU/mL and 5200000 CFU/mL | AVE CFU/ml ([4]; 4X MIC, 2 h): 3.73E+06 CFU/ml and 3733333 CFU/ml | CFU/mL, replicates 1-3 ([4]; 4X MIC, 2 h): 3600000 CFU/mL and 3400000 CFU/mL and 4200000 CFU/mL | AVE CFU/ml ([4]; 4X MIC, 4 h): 2733333 CFU/ml and 2.73E+06 CFU/ml | CFU/mL, replicates 1-3 ([4]; 4X MIC, 4 h): 2400000 CFU/mL (2×) and 3400000 CFU/mL | AVE CFU/ml ([4]; 4X MIC, 6 h): 2866667 CFU/ml and 2.87E+06 CFU/ml | CFU/mL, replicates 1-3 ([4]; 4X MIC, 6 h): 3000000 CFU/mL (2×) and 2600000 CFU/mL | AVE CFU/ml ([4]; 4X MIC, 8 h): 760000 CFU/ml and 7.60E+05 CFU/ml | CFU/mL, replicates 1-3 ([4]; 4X MIC, 8 h): 780000 CFU/mL and 800000 CFU/mL and 700000 CFU/mL | AVE CFU/ml ([4]; 4X MIC, 24 h): 0 CFU/ml and 0.00E+00 CFU/ml | CFU/mL, replicates 1-3 ([4]; 4X MIC, 24 h): 0 CFU/mL | AVE CFU/ml ([4]; 8X MIC, 0 h): 9800000 CFU/ml | AVE CFU/ml ([4]; 8X MIC, 1 h): 5.13E+06 CFU/ml and 5133333 CFU/ml | CFU/mL, replicates 1-3 ([4]; 8X MIC, 1 h): 5200000 CFU/mL and 4600000 CFU/mL and 5600000 CFU/mL | AVE CFU/ml ([4]; 8X MIC, 2 h): 4.93E+06 CFU/ml and 4933333 CFU/ml | CFU/mL, replicates 1-3 ([4]; 8X MIC, 2 h): 5400000 CFU/mL and 5200000 CFU/mL and 4200000 CFU/mL | AVE CFU/ml ([4]; 8X MIC, 4 h): 3000000 CFU/ml and 3.00E+06 CFU/ml | CFU/mL, replicates 1-3 ([4]; 8X MIC, 4 h): 3000000 CFU/mL and 2800000 CFU/mL and 3200000 CFU/mL | AVE CFU/ml ([4]; 8X MIC, 6 h): 993333 CFU/ml and 9.93E+05 CFU/ml | CFU/mL, replicates 1-3 ([4]; 8X MIC, 6 h): 1060000 CFU/mL and 940000 CFU/mL and 980000 CFU/mL | AVE CFU/ml ([4]; 8X MIC, 8 h): 433333 CFU/ml and 4.33E+05 CFU/ml | CFU/mL, replicates 1-3 ([4]; 8X MIC, 8 h): 400000 CFU/mL and 480000 CFU/mL and 420000 CFU/mL | AVE CFU/ml ([4]; 8X MIC, 24 h): 0 CFU/ml and 0.00E+00 CFU/ml | CFU/mL, replicates 1-3 ([4]; 8X MIC, 24 h): 0 CFU/mL | MIC ([4]; Neisseria gonorrhoeae, ATCC49226): 0.5 µg/mL (≈ 1.48 µM) | bactericidal concentration ([4]; time-kill, N. gonorrhoeae): ≥ 4 X MIC
